This passage reports EC50, IC50 and selectivity ratio results from ChEMBL document CHEMBL1138700, “3-O-Glutaryl-dihydrobetulin and related monoacyl derivatives as potent anti-HIV agents” (Bioorg Med Chem Lett, 2004).

Data set [1] concerns Human immunodeficiency virus 1. Kind of data set: Concentration required to inhibit 50% of HIV-1 (human immunodeficiency virus-1) replication. The class given is functional, organism-based.
For the next data set, the system named is H9. Kind of data set: Concentration required to produce 50% toxicity against mock-infected H9 cells. As to conditions: Homo sapiens. The class given is functional, cell-based.
Data set [2] is described as follows: Therapeutic index expressed as ratio of IC50 for 50% toxicity to EC50 for 50% inhibition. The class given is cell-based. As to conditions: human, H9 cells; read-out: TI.
In data set [3] the test system is Human immunodeficiency virus 1. Kind of data set: Concentration required to inhibit 50% of HIV-1 (human immunodeficiency virus-1) replication; No suppression at concentrations up to 100 ug/mL. The class given is functional, organism-based.

In general, EC50 refers to the concentration that produces a half-maximal response. A low value points to an effect from little substance. Usually IC50 stands for the concentration that inhibits the measured activity by half. In the case of `C=C(C)[C@@H]1CC[C@]2(CO)CC[C@]3(C)[C@H](CC[C@@H]4[C@@]5(C)CC[C@H](OC(=O)CCCC(=O)O)C(C)(C)[C@@H]5CC[C@]43C)[C@@H]12`, the half-maximal effective concentration (EC50) in data set [1] was found to be 60 nM. 44400 nM corresponded to half-maximal inhibition in the data set on H9 (IC50). Moreover, in data set [2], the selectivity ratio is 670.

The compound `C=C(C)[C@@H]1CC[C@]2(COC(=O)CC(C)(C)CC(=O)O)CC[C@]3(C)[C@H](CC[C@@H]4[C@@]5(C)CC[C@H](OC(=O)CC(C)(C)CC(=O)O)C(C)(C)[C@@H]5CC[C@]43C)[C@@H]12` showed an EC50 in data set [1] of 0.66 nM. Besides, the selectivity ratio in data set [2] was 21500.

For `C=C(C)[C@@H]1CC[C@]2(CO)CC[C@]3(C)[C@H](CC[C@@H]4[C@@]5(C)CC[C@H](OC(=O)COCC(=O)O)C(C)(C)[C@@H]5CC[C@]43C)[C@@H]12`, the EC50 in data set [1] turned out to be 20 nM. Moreover, the concentration for half-maximal inhibition (IC50) in the data set on H9 is > 44800 nM. Further, in data set [2], the selectivity ratio was > 1820.

On to `C=C(C)[C@@H]1CC[C@]2(CO)CC[C@]3(C)[C@H](CC[C@@H]4[C@@]5(C)CC[C@H](OC(=O)CC(C)(C)CC(=O)O)C(C)(C)[C@@H]5CC[C@]43C)[C@@H]12`, for which, in data set [1], a half-maximal effect (EC50) was put at 4.4 nM. The compound also showed an IC50 in the data set with H9 of 28900 nM. The selectivity ratio in data set [2] stood at 6570.

The compound `C=C(C)[C@@H]1CC[C@]2(COC(=O)C(C)(C)CC(=O)O)CC[C@]3(C)[C@H](CC[C@@H]4[C@@]5(C)CC[C@H](OC(=O)CC(C)(C)C(=O)O)C(C)(C)[C@@H]5CC[C@]43C)[C@@H]12` gave a 50% effective concentration (EC50) in data set [1] of 0.87 nM. The selectivity ratio in data set [2] is 42400.

On to `C=C(C)[C@@H]1CC[C@]2(C(=O)O)CC[C@]3(C)[C@H](CC[C@@H]4[C@@]5(C)CC[C@H](OC(=O)CC(C)(C)C(=O)O)C(C)(C)[C@@H]5CC[C@]43C)[C@@H]12` [BEVIRIMAT], for which the half-maximal effective concentration (EC50) in data set [1] was < 0.35 nM. For the same compound, the selectivity ratio in data set [2] was > 20000.

Regarding `CC(C)[C@@H]1CC[C@]2(CO)CC[C@]3(C)[C@H](CC[C@@H]4[C@@]5(C)CC[C@H](OC(=O)CC(C)(C)C(=O)O)C(C)(C)[C@@H]5CC[C@]43C)[C@@H]12`, in data set [1], the half-maximal effective concentration (EC50) stood at 1.7 nM. This compound also gave an IC50 in the data set on H9 of 27000 nM. For the same compound, the selectivity ratio in data set [2] is 16200.

The compound `Cc1cn([C@H]2C[C@H](N=[N+]=[N-])[C@@H](CO)O2)c(=O)[nH]c1=O` [ZIDOVUDINE] gave an EC50 in data set [1] of 6.2 nM.

In turn, `CC(C)[C@@H]1CC[C@]2(CO)CC[C@]3(C)[C@H](CC[C@@H]4[C@@]5(C)CC[C@H](OC(=O)CC(C)(C)CC(=O)O)C(C)(C)[C@@H]5CC[C@]43C)[C@@H]12` yielded an EC50 in data set [1] of 1.3 nM. In the data set with H9, this compound registered a 50% inhibitory concentration (IC50) of 25700 nM. Moreover, the selectivity ratio in data set [2] is 19500.

`C=C(C)[C@@H]1CC[C@]2(CO)CC[C@]3(C)[C@H](CC[C@@H]4[C@@]5(C)CC[C@H](OC(=O)CCC(=O)O)C(C)(C)[C@@H]5CC[C@]43C)[C@@H]12` displayed an IC50 in the data set with H9 of 26000 nM. The 50% effective concentration (EC50) entry in data set [3] is given as “No suppression”.

Consider `CC(C)[C@@H]1CC[C@]2(CO)CC[C@]3(C)[C@H](CC[C@@H]4[C@@]5(C)CC[C@H](OC(=O)CCCC(=O)O)C(C)(C)[C@@H]5CC[C@]43C)[C@@H]12`, for which, in data set [1], the EC50 was determined as 0.02 nM. Inhibition in the data set on H9 was half-maximal at 23600 nM (IC50). For the same compound, in data set [2], the selectivity ratio was 1.12e+06.

`C=C(C)[C@@H]1CC[C@]2(C(=O)O)CC[C@]3(C)[C@H](CC[C@@H]4[C@@]5(C)CC[C@H](O)C(C)(C)[C@@H]5CC[C@]43C)[C@@H]12` [BETULINIC ACID]: in data set [1], a half-maximal response (EC50) required 1400 nM. Moreover, the selectivity ratio in data set [2] was determined as 9.2.

Compound `C=C(C)[C@@H]1CC[C@]2(CO)CC[C@]3(C)[C@H](CC[C@@H]4[C@@]5(C)CC[C@H](OC(=O)CC(C)(C)C(=O)O)C(C)(C)[C@@H]5CC[C@]43C)[C@@H]12` had an EC50 in data set [1] of 5.6 nM. In addition, the midpoint of inhibition in the data set on H9, the IC50, lay at 33500 nM. The selectivity ratio in data set [2] was 5970.
